Reference: patent US4843070A, “Substituted thiazetoquinoline-3-carboxylic acids and pharmaceutically acceptable salts thereof” (priority 1986, dated 1989)
≈ marks a conversion by molar mass, not a printed value. Read-outs that look alike come from different tables or passages of the source.

Legend:
S. flexneri = test: MIC by agar plate dilution method, S. flexneri; assay type: cell-based; settings: Shigella flexneri, Test 2, inoculum 10^6, 37° C., 18 hours, read-out: minimum inhibitory concentration (MIC)
Method: (§1) Test method: The MIC was measured by an agar plate dilution method in accordance with a standard method of Japan Chemotherapeutic Society (cf. Nippon Kagaku Ryoho Gakkaishi, 29(1), 76-79, 1981). Thus, the organisms incubated at 37° C. for 18 hours using sensitivity test broth (Nissei) was diluted to 10^6 CFU/ml using the same broth. […] As a control, enoxacin and ofloxacin were used in Tests 1 and 2, respectively.
(§2) The numbers of the inoculated bacteria were 10^6 in all cases and the unit of the MIC was micrograms/ml.

Proteus mirabilis 181 = test: MIC by agar plate dilution method, Proteus mirabilis 181; assay type: cell-based; settings: Proteus mirabilis, 181, 18 h, read-out: minimum inhibitory concentration (MIC)
Method: as §1, §2

K. pneumoniae K-1966 = test: MIC by agar plate dilution method, K. pneumoniae K-1966; assay type: cell-based; settings: Klebsiella pneumoniae, K1966; Test 2; K. pneumoniae K-1966; inoculum 10^6; 37° C., 18 hours; read-out: minimum inhibitory concentration (MIC)
Method: as §1, §2

B. subtilis ATCC 6633 = test: MIC by agar plate dilution method, B. subtilis ATCC 6633; assay type: cell-based; settings: Bacillus subtilis, ATCC6633; Test 2; B. subtilis ATCC 6633; inoculum 10^6; 37° C., 18 hours; read-out: minimum inhibitory concentration (MIC)
Method: as §1, §2

S. marcescens IFO 3736 = test: MIC by agar plate dilution method, S. marcescens IFO 3736; assay type: cell-based; settings: Serratia marcescens, IFO3736; Test 2; S. Marcescens IFO 3736; inoculum 10^6; 37° C., 18 hours; read-out: minimum inhibitory concentration (MIC)
Method: as §1, §2

E. coli NIHJ JC-2 = test: MIC by agar plate dilution method, E. coli NIHJ JC-2; assay type: cell-based; settings: Escherichia coli, NIHJJC2; Test 2; E. coli NIHJ JC-2; inoculum 10^6; 37° C., 18 hours; read-out: minimum inhibitory concentration (MIC)
Method: as §1, §2

P. aeruginosa E-2 [1] = test: MIC by agar plate dilution method, P. aeruginosa E-2; assay type: cell-based; settings: Pseudomonas aeruginosa, E2; Test 2; P. aeruginosa E-2; inoculum 10^6; 37° C., 18 hours; read-out: minimum inhibitory concentration (MIC)
Method: as §1, §2

M. luteus ATCC 9341 = test: MIC by agar plate dilution method, M. luteus ATCC 9341; assay type: cell-based; settings: Micrococcus luteus, ATCC9341; Test 2; M. luteus ATTC 9341; inoculum 10^6; 37° C., 18 hours; read-out: minimum inhibitory concentration (MIC)
Method: as §1, §2

S. epidermidis = test: MIC by agar plate dilution method, S. epidermidis; assay type: cell-based; settings: Staphylococcus epidermidis, Test 2, inoculum 10^6, 37° C., 18 hours, read-out: minimum inhibitory concentration (MIC)
Method: as §1, §2

S. aureus 209-P JC = test: MIC by agar plate dilution method, S. aureus 209-P JC; assay type: cell-based; settings: Staphylococcus aureus; Test 2; S. aureus 209-P JC; inoculum 10^6; 37° C., 18 hours; read-out: minimum inhibitory concentration (MIC)
Method: as §1, §2

E. coli KC-14 = test: Therapeutic effect on infection in mice, E. coli KC-14; assay type: in vivo, ddY-strain male mice; settings: Escherichia coli, KC14, po, 168 h
Method: (§3) Test Method: Escherichia coli KC-14 and Psudomonas aeruginosa E-2 were suspended in 4% mucin and 0.25 ml of it was inoculated into peritoneal cavity of ddY-strain male mice (body weight about 20 g; 4 weeks age; 10 mice per group). The numbers of the inoculated bacteria were 5.1×10^4 CFU/mouse and 7.5×10^4 CFU/mouse for E. coli and P. aeruginosa, respectively. The drug was administered orally once 2 hours after the infection of the bacteria and, out of the survival rate after one week, the ED50 values were calculated by a Behrens-Karber method. As controls, ofloxacin and enoxacin were used.
(§4) Bacteria used for calculating ED50 were E. coli KC-14 for (1) and P. aeruginosa E-2 for (2). The compounds (1) to (7) of the present invention designated in Table 2 are as follows.

P. aeruginosa E-2 [2] = test: Therapeutic effect on infection in mice, P. aeruginosa E-2; assay type: in vivo, ddY-strain male mice; settings: Pseudomonas aeruginosa, E2, po, 168 h
Method: as §3, §4

in vivo = settings: mouse, oral administration, ddY-strain male mice, 2 weeks
Source text: The result of oral administration to ddY-strain male mice (7 weeks age; body weight ca. 35 g; 3 mice per group) for 2 weeks was given.

COc1c(N2CCN(C)CC2)c(F)cc2c(=O)c(C(=O)O)c3n(c12)C(C)S3 (stereo not shown) [Table 1 (14), 6-Fluoro-8-methoxy-1-methyl-7-(4-methyl-1-piperazinyl)-4-oxo-4H-(1,3)thiazeto(3,2-a)quinoline-3-carboxylic acid]
MIC (S. flexneri): 0.0125 µg/mL (≈ 0.0318 µM)
MIC (Proteus mirabilis 181): 0.0125 µg/mL (≈ 0.0318 µM)
MIC (K. pneumoniae K-1966): 0.025 µg/mL (≈ 0.0635 µM)
MIC (B. subtilis ATCC 6633): 0.025 µg/mL (≈ 0.0635 µM)
MIC (S. marcescens IFO 3736): 0.2 µg/mL (≈ 0.508 µM)
MIC (E. coli NIHJ JC-2): 0.05 µg/mL (≈ 0.127 µM)
MIC (P. aeruginosa E-2 [1]): 0.39 µg/mL (≈ 0.991 µM)
MIC (M. luteus ATCC 9341): 0.2 µg/mL (≈ 0.508 µM)
MIC (S. epidermidis): 0.39 µg/mL (≈ 0.991 µM)
MIC (S. aureus 209-P JC): 0.1 µg/mL (≈ 0.254 µM)

CC(=O)CN1CCN(c2cc3c(cc2F)c(=O)c(C(=O)O)c2n3C(C)S2)CC1 (stereo not shown) [Table 2 (6), 7-(4-Acetonyl-1-piperazinyl)-6-fluoro-1-methyl-4-oxo-4H-(1,3)thiazeto(3,2-a)quinoline-3-carboxylic acid]
ED50 (E. coli KC-14; E. coli KC-14, 5.1×10^4 CFU/mouse i.p., drug orally once 2 hours after infection, survival after one week, read-out: ED50): 0.6 mg/kg
ED50 (P. aeruginosa E-2 [2]; P. aeruginosa E-2, 7.5×10^4 CFU/mouse i.p., drug orally once 2 hours after infection, survival after one week, read-out: ED50): 5 mg/kg

CC1Sc2c(C(=O)O)c(=O)c3cc(F)c(N4CCN(C)CC4)cc3n21.O=S(=O)(O)O (stereo not shown) [Table 1 (5), 6-Fluoro-1-methyl-7-(4-methyl-1-piperazinyl)-4-oxo-4H-(1,3)thiazeto(3,2-a)quinoline-3-carboxylic acid sulfate]
ED50 (E. coli KC-14): 0.5 mg/kg
ED50 (P. aeruginosa E-2 [2]): 4 mg/kg

CCOC(=O)c1c2n(c3cc(N4CCN(C)C(C)C4)c(F)cc3c1=O)C(C)S2 (stereo not shown) [Table 2 (3), Ethyl 7-(3,4-dimethyl-1-piperazinyl)-6-fluoro-1-methyl-4-oxo-4H-(1,3)thiazeto(3,2-a)quinoline-3-carboxylate]
LD50 at 336 h (in vivo): ≥ 3000 mg/kg

CC1Sc2c(C(=O)O)c(=O)c3cc(F)c(N4CCN(C)CC4)cc3n21 (stereo not shown) [Table 1 (2), 6-Fluoro-1-methyl-7-(4-methyl-1-piperazinyl)-4-oxo-4H-(1,3)thiazeto(3,2-a)quinoline-3-carboxylic acid]
LD50 at 336 h (in vivo): ≥ 3000 mg/kg
